# Tested on: septic shock patients
# Assay: Phase IIa clinical trial with nangibotide in septic shock patients: SOFA score evolution
# Type: in vivo, human
# Procedure: This was a randomized, double-blind, two-stage, placebo-controlled study. As described in FIG. 7, the study was composed of 2 stages with a similar treatment regimen, in which 0.3, 1.0 or 3.0 mg/kg/h of nangibotide (corresponding to peptide LR12, having an amino acid sequence as set forth in SEQ ID NO: 9, also known as motrem) was tested versus placebo. All patients with a diagnosis of septic shock were considered for study participation. All potential study patients underwent standard care management procedures. Patients with evidence of septic shock according to the Sepsis-3 definition (Singer et al, JAMA 2016) were considered for inclusion (i.e., patients suffering from sepsis and having (i) persisting hypotension requiring vasopressors to maintain their mean arterial pressure ≥65 mm Hg and (ii) a serum lactate level >2 mmol/L (18 mg/dL) despite adequate volume resuscitation).
# After screening for eligibility, patients were randomized to one of the treatment arms. Then, they received either a 5 mg/kg loading dose of nangibotide over 15 minutes followed by a continuous intravenous (i.v.) infusion of nangibotide or a matching placebo on top of standard of care. Treatment with study drug was initiated as early as possible, but no later than 24 hours after the onset of septic shock, defined by the start of vasopressor therapy. Patients were treated until 12 (±2) hours after the resolution of their septic shock (defined as vasopressor withdrawal) with a maximum treatment duration of 5 days (120 hours).
# Adverse events (AEs) were coded using the MedDRA dictionary version 18.1. Treatment-emergent adverse events (TEAEs) were summarized and listed. Analysis was performed in 49 septic shock patients. The demographic and baseline characteristics were summarized in a descriptive fashion within each population: categorical variables were summarized by contingency tables (frequencies and percentages). sTREM-1 levels at day 1 were also described (mean, standard deviation, standard error, median, quartiles and range, minimum and maximum values). Mortality rates were reported by frequency and percentage. For continuous endpoints, i.e., the sequential organ failure assessment (SOFA), missing data were imputed using LOCF (Last Observation Carry-Forward). For time-to-event analyses, i.e., duration of invasive mechanical ventilation (IMV), duration of continuous renal replacement therapy (CRRT), survival, censored data techniques were utilized. In addition, a sensitivity analysis of time to event data (except survival) was performed using censoring at maximum limit for the corresponding observation period (i.e., either day 28 or day 90). […] The following comparisons were made: each nangibotide dose arm to placebo, all nangibotide doses combined versus placebo, and dose-response using an ordinal trend test. Exploratory composite endpoint: incidence (number and proportion) of patients alive at day 28 and free of vasopressor, free of IMV and free of CRRT were summarized by treatment and compared between treatments with a Fisher's exact test. For pharmacodynamic markers, log transformed data were represented as percentage change from baseline at day 5 or End of Infusion (EOI) if end of infusion was stopped before day 5. […] “All nangibotide” refers to analyses obtained by pooling data from 0.3, 1 and 3 mg/kg/h nangibotide-treated groups.
# [1] = patients with high sTREM-1 at baseline (above median 433 pg/mL), Day 1, 0.3 mg/kg/h
# [2] = patients with high sTREM-1 at baseline (above median 433 pg/mL), Day 1, 1.0 mg/kg/h
# [3] = patients with high sTREM-1 at baseline (above median 433 pg/mL), Day 1, 3.0 mg/kg/h
# [4] = patients with high sTREM-1 at baseline (above median 433 pg/mL), Day 1, all nangibotide doses pooled
# [5] = patients with high sTREM-1 at baseline (above median 433 pg/mL), Day 2, 0.3 mg/kg/h
# [6] = patients with high sTREM-1 at baseline (above median 433 pg/mL), Day 2, 1.0 mg/kg/h
# [7] = patients with high sTREM-1 at baseline (above median 433 pg/mL), Day 2, 3.0 mg/kg/h
# [8] = patients with high sTREM-1 at baseline (above median 433 pg/mL), Day 2, all nangibotide doses pooled
# [9] = patients with high sTREM-1 at baseline (above median 433 pg/mL), Day 3, 0.3 mg/kg/h
# [10] = patients with high sTREM-1 at baseline (above median 433 pg/mL), Day 3, 1.0 mg/kg/h
# [11] = patients with high sTREM-1 at baseline (above median 433 pg/mL), Day 3, 3.0 mg/kg/h
# [12] = patients with high sTREM-1 at baseline (above median 433 pg/mL), Day 3, all nangibotide doses pooled
# [13] = patients with high sTREM-1 at baseline (above median 433 pg/mL), Day 4, 0.3 mg/kg/h
# [14] = patients with high sTREM-1 at baseline (above median 433 pg/mL), Day 4, 1.0 mg/kg/h
# [15] = patients with high sTREM-1 at baseline (above median 433 pg/mL), Day 4, 3.0 mg/kg/h
# [16] = patients with high sTREM-1 at baseline (above median 433 pg/mL), Day 4, all nangibotide doses pooled
# [17] = patients with high sTREM-1 at baseline (above median 433 pg/mL), Day 5, 1.0 mg/kg/h
# [18] = patients with low sTREM-1 at baseline (below median 433 pg/mL), Day 1, 0.3 mg/kg/h
# [19] = patients with low sTREM-1 at baseline (below median 433 pg/mL), Day 1, 1.0 mg/kg/h
# [20] = patients with low sTREM-1 at baseline (below median 433 pg/mL), Day 1, 3.0 mg/kg/h
# [21] = patients with low sTREM-1 at baseline (below median 433 pg/mL), Day 1, all nangibotide doses pooled
# [22] = patients with low sTREM-1 at baseline (below median 433 pg/mL), Day 2, 0.3 mg/kg/h
# [23] = patients with low sTREM-1 at baseline (below median 433 pg/mL), Day 2, 1.0 mg/kg/h
# [24] = patients with low sTREM-1 at baseline (below median 433 pg/mL), Day 2, 3.0 mg/kg/h
# [25] = patients with low sTREM-1 at baseline (below median 433 pg/mL), Day 2, all nangibotide doses pooled
# [26] = patients with low sTREM-1 at baseline (below median 433 pg/mL), Day 3, 0.3 mg/kg/h
# [27] = patients with low sTREM-1 at baseline (below median 433 pg/mL), Day 3, 1.0 mg/kg/h
substance,measurement,setting,value
nangibotide (LQEEDAGEYGCM; TLT-1 peptide),nangibotide efficacy by baseline sTREM-1 subgroup,"patients with baseline sTREM-1 above the median (above 433 pg/mL), pharmacodynamic parameters, medical support, SOFA score",more pronounced
same,"SOFA score evolution (change versus baseline, LOCF), LSMean (SE)",[1],0.16 (0.60)
same,"SOFA score, estimated difference (SE) vs. placebo",[1],0.14 (0.90)
same,"SOFA score evolution (change versus baseline, LOCF), LSMean (SE)",[2],−0.50 (0.59)
same,"SOFA score, estimated difference (SE) vs. placebo",[2],−0.52 (0.89)
same,"SOFA score evolution (change versus baseline, LOCF), LSMean (SE)",[3],−0.38 (0.51)
same,"SOFA score, estimated difference (SE) vs. placebo",[3],−0.40 (0.84)
same,"SOFA score evolution (change versus baseline, LOCF), LSMean (SE)",[4],−0.24 (0.33)
same,"SOFA score, estimated difference (SE) vs. placebo",[4],−0.26 (0.74)
same,"SOFA score evolution (change versus baseline, LOCF), LSMean (SE)",[5],−1.52 (0.80)
same,"SOFA score, estimated difference (SE) vs. placebo",[5],−1.14 (1.21)
same,"SOFA score evolution (change versus baseline, LOCF), LSMean (SE)",[6],−2.00 (0.80)
same,"SOFA score, estimated difference (SE) vs. placebo",[6],−1.63 (1.19)
same,"SOFA score evolution (change versus baseline, LOCF), LSMean (SE)",[7],−0.50 (0.69)
same,"SOFA score, estimated difference (SE) vs. placebo",[7],−0.13 (1.13)
same,"SOFA score evolution (change versus baseline, LOCF), LSMean (SE)",[8],−1.34 (0.44)
same,"SOFA score, estimated difference (SE) vs. placebo",[8],−0.97 (1.00)
same,"SOFA score evolution (change versus baseline, LOCF), LSMean (SE)",[9],−2.73 (0.89)
same,"SOFA score, estimated difference (SE) vs. placebo",[9],−2.64 (1.34)
same,"SOFA score evolution (change versus baseline, LOCF), LSMean (SE)",[10],−2.00 (0.89)
same,"SOFA score, estimated difference (SE) vs. placebo",[10],−1.90 (1.32)
same,"SOFA score evolution (change versus baseline, LOCF), LSMean (SE)",[11],−0.39 (0.77)
same,"SOFA score, estimated difference (SE) vs. placebo",[11],−0.30 (1.25)
same,"SOFA score evolution (change versus baseline, LOCF), LSMean (SE)",[12],−1.71 (0.49)
same,"SOFA score, estimated difference (SE) vs. placebo",[12],−1.61 (1.11)
same,"SOFA score evolution (change versus baseline, LOCF), LSMean (SE)",[13],−3.22 (0.94)
same,"SOFA score, estimated difference (SE) vs. placebo",[13],−2.70 (1.41)
same,"SOFA score evolution (change versus baseline, LOCF), LSMean (SE)",[14],−1.83 (0.93)
same,"SOFA score, estimated difference (SE) vs. placebo",[14],−1.31 (1.39)
same,"SOFA score evolution (change versus baseline, LOCF), LSMean (SE)",[15],−0.51 (0.81)
same,"SOFA score, estimated difference (SE) vs. placebo",[15],0.00 (1.31)
same,"SOFA score evolution (change versus baseline, LOCF), LSMean (SE)",[16],−1.85 (0.52)
same,"SOFA score, estimated difference (SE) vs. placebo",[16],−1.34 (1.16)
same,"SOFA score evolution (change versus baseline, LOCF), LSMean (SE)","patients with high sTREM-1 at baseline (above median 433 pg/mL), Day 5, 0.3 mg/kg/h",−3.20 (0.90)
same,"SOFA score, estimated difference (SE) vs. placebo","patients with high sTREM-1 at baseline (above median 433 pg/mL), Day 5, 0.3 mg/kg/h, 0.3 mg/kg",−2.85 (1.36)
same,"SOFA score, estimated difference (SE) vs. placebo","patients with high sTREM-1 at baseline (above median 433 pg/mL), Day 5, 0.3 mg/kg/h, listed as nangibotide, 0.3 mg/kg",−2.85
same,"SOFA score evolution (change versus baseline, LOCF), LSMean (SE)",[17],−1.83 (0.90)
same,"SOFA score, estimated difference (SE) vs. placebo",[17],−1.48 (1.34)
same,"SOFA score evolution (change versus baseline, LOCF), LSMean (SE)","patients with high sTREM-1 at baseline (above median 433 pg/mL), Day 5, 3.0 mg/kg/h",−0.51 (0.78)
same,"SOFA score, estimated difference (SE) vs. placebo","patients with high sTREM-1 at baseline (above median 433 pg/mL), Day 5, 3.0 mg/kg/h, 3 mg/kg",−0.16 (1.27)
same,"SOFA score, estimated difference (SE) vs. placebo","patients with high sTREM-1 at baseline (above median 433 pg/mL), Day 5, 3.0 mg/kg/h, listed as nangibotide, 3 mg/kg",−0.16
same,"SOFA score evolution (change versus baseline, LOCF), LSMean (SE)","patients with high sTREM-1 at baseline (above median 433 pg/mL), Day 5, all nangibotide doses pooled",−1.85 (0.50)
same,dose response of SOFA score difference vs. placebo,"patients with high sTREM-1 at baseline, 0.3 vs 3 mg/kg/h",inverse dose response
same,"SOFA score evolution (change versus baseline, LOCF), LSMean (SE)",[18],−1.40 (0.80)
same,"SOFA score, estimated difference (SE) vs. placebo",[18],0.29 (1.13)
same,"SOFA score evolution (change versus baseline, LOCF), LSMean (SE)",[19],−0.01 (0.88)
same,"SOFA score, estimated difference (SE) vs. placebo",[19],1.67 (1.20)
same,"SOFA score evolution (change versus baseline, LOCF), LSMean (SE)",[20],−0.35 (1.06)
same,"SOFA score, estimated difference (SE) vs. placebo",[20],1.33 (1.33)
same,"SOFA score evolution (change versus baseline, LOCF), LSMean (SE)",[21],−.059 (0.53)
same,"SOFA score, estimated difference (SE) vs. placebo",[21],1.10 (0.96)
same,"SOFA score evolution (change versus baseline, LOCF), LSMean (SE)",[22],−2.99 (0.92)
same,"SOFA score, estimated difference (SE) vs. placebo",[22],−0.86 (1.30)
same,"SOFA score evolution (change versus baseline, LOCF), LSMean (SE)",[23],−1.62 (1.02)
same,"SOFA score, estimated difference (SE) vs. placebo",[23],0.51 (1.38)
same,"SOFA score evolution (change versus baseline, LOCF), LSMean (SE)",[24],−1.87 (1.22)
same,"SOFA score, estimated difference (SE) vs. placebo",[24],0.26 (1.53)
same,"SOFA score evolution (change versus baseline, LOCF), LSMean (SE)",[25],−2.16 (0.61)
same,"SOFA score, estimated difference (SE) vs. placebo",[25],−0.03 (1.11)
same,"SOFA score evolution (change versus baseline, LOCF), LSMean (SE)",[26],−2.68 (1.02)
same,"SOFA score, estimated difference (SE) vs. placebo",[26],−0.57 (1.44)
same,"SOFA score evolution (change versus baseline, LOCF), LSMean (SE)",[27],−1.51 (1.13)
same,"SOFA score, estimated difference (SE) vs. placebo",[27],0.61 (1.53)

# Source: US12364733B1, “Method for treating septic shock” (Inotrem, priority 2018, dated 2025)
